# Measurements as given in patent US8546357B2, “Boron-containing small molecules for controlling ectoparasites” (priority 2011, dated 2013).
# Experiments:
# Assay type in all cases: in vivo
# [1] = test system: American dog tick (Dermacentor variabilis) nymphs; experiment: Efficacy against nymphal-stage American dog ticks on rats, oral; settings: oral point dose of between 5-25 mg/kg bodyweight, 48 hours after treatment
# Protocol: Evaluations were conducted using a modified version of the assay as described in Gutierrez et al., J. Med. Entomol. 43(3): 526-532 (2006). This assay may be modified by simply using different tick species (the reference describes Amblyomma americanum ticks), such as Dermacentor variabilis or Rhipicephalus sanguineus ticks, as well as different life-stages (larval, nymphal or adult). Further, the reference describes using topical application methods, but oral, transdermal and subcutaneous injection routes of administration may be used.
# In these studies, adult male or female rats, approximately 300 grams in size, were randomly assigned to a treatment group or a control (untreated negative control or fipronil positive control) group. Each group consisted of three (3) to five (5) rats. […] On Day 2, approximately forty-eight (48) hours after treatment, live and dead ticks were removed from animals and counted.
# Live tick counts were transformed using the natural logarithm transformation plus one (Ln count+1); addition of one to each count served to adjust for counts that were zero. […] GM percent efficacy of treatments was calculated using the following formula:
# Enantiomers were evaluated for activity against American dog tick (Dermacentor variabilis) nymphs on rats. […] On Day 2, approximately forty-eight (48) hours after treatment, live and dead ticks were removed from animals and counted. […]
# [2] = test system: brown dog tick (Rhipicephalus sanguineus); experiment: Residual efficacy against adult brown dog tick infestations on dogs, oral; settings: Day 32
# Protocol: Immediately following removal of D. variabilis ticks on Day 30, dogs were co-infested with approximately 50 adult, unfed brown dog ticks (R. sanguineus, approximately 50% male and 50% female) and approximately 100 adult, unfed cat fleas (C. felis, approximately 50% male and 50% female). Ticks and fleas were counted and removed on Day 32 (approximately 48 hours after infestation). GM percent efficacy of treatments against both tick species and fleas was calculated using the following formula: […]
# The therapeutic (knockdown) and residual efficacy of 7, administered orally at a point dose of 35 mg/kg bodyweight, was evaluated against adult tick (Dermacentor variabilis and Rhipicephalus sanguineus) and adult cat flea (Ctenocephalides felis) infestations on dogs. Twelve (12) male and female beagle dogs were allocated to either an untreated, negative control group or 7 group (n=6 dogs per group). Dogs were infested with approximately 50 unfed, adult D. variabilis ticks on Days −1, 5, 12, 19, 28, 35 and 42. On Day 0, dogs were orally administered gelatin capsules containing Compound 8194 (50% technical active, 47% microcrystalline cellulose and 3% croscarmellose sodium, w/w) at a point dose of 35 mg/kg. D. variabilis tick counts and classification were conducted on Day 1 (thumb count, approximately 24 hours after treatment) and Days 2, 7, 14, 21, 30, 37 and 44 (approximately 48 hours after treatment). Following removal of D. variabilis ticks on Day 30, all dogs were co-infested with approximately 50 unfed, adult brown dog ticks (R. sanguineus) and approximately 100 unfed, adult cat fleas (C. felis). Brown dog tick and cat flea counts were conducted on Day 32 (approximately 48 hours after infestation). GM percent efficacy of treatments against both tick species and fleas was calculated using the following formula: […]
# The therapeutic (knockdown) and residual efficacy of S-enantiomer, 9, administered orally at a point dose of 25 mg/kg bodyweight, was evaluated against adult tick (Dermacentor variabilis and Rhipicephalus sanguineus) and adult cat flea (Ctenocephalides felis) infestations on dogs. Twelve (12) male and female beagle dogs were allocated to either an untreated, negative control group or 9 group (n=6 dogs per group). Dogs were infested with approximately 50 unfed, adult D. variabilis ticks on Days −1, 5, 12, 19, and 28. On Day 0, dogs were orally administered gelatin capsules containing 9 (50% technical active, 47% microcrystalline cellulose and 3% croscarmellose sodium, w/w) at a point dose of 25 mg/kg. D. variabilis tick counts and classification were conducted on Day 1 (thumb count, approximately 24 hours after treatment) and Days 2, 7, 14, 21 and 30 (approximately 48 hours after treatment). Following removal of D. variabilis ticks on Day 30, all dogs were co-infested with approximately 50 unfed, adult brown dog ticks (R. sanguineus) and approximately 100 unfed, adult cat fleas (C. felis). Brown dog tick and cat flea counts were conducted on Day 32 (approximately 48 hours after infestation). GM percent efficacy of treatments against both tick species and fleas was calculated using the following formula: […]
# [3] = test system: cat flea (Ctenocephalides felis); experiment: Therapeutic efficacy and speed of kill against adult cat flea infestations on dogs, oral; settings: oral capsule 20 mg/kg
# Protocol: The therapeutic efficacy and speed of kill of 7, administered orally at a point dose of 20 mg/kg bodyweight, was evaluated against adult cat flea (Ctenocephalides felis) infestations on dogs. Eighteen (18) male and female beagle dogs were allocated to one of six treatment groups (n=3 dogs per group). Groups 1, 2 and 3 were untreated, negative controls and groups 4, 5 and 6 received 7. On Day −1, all dogs were infested with approximately 100 unfed, adult fleas (approximately 50% male and 50% female). On Day 0, dogs in groups 4, 5 and 6 were orally administered gelatin capsules containing 7, at a point dose of 20 mg/kg (50% technical active, 47% microcrystalline cellulose and 3% croscarmellose sodium, w/w). At eight (8) hours post-treatment, fleas were counted and removed from dogs in groups 1 and 4; at twelve (12) hours post-treatment, fleas were counted and removed from dogs in groups 2 and 5; and at twenty-four (24) hours post-treatment, fleas were counted and removed from dogs in groups 3 and 6. GM percent efficacy of treatments against fleas was calculated using the following formula: […]
smiles,measurement,setting,value
"Cc1cc(C2=NOC(c3cc(Cl)c(Cl)c(Cl)c3)(C(F)(F)F)C2)ccc1C(=O)NCc1ccc2c(c1)B(O)OC2(C)C (stereo not drawn) [Compound 7, N-((1-Hydroxy-3,3-dimethyl-1,3-dihydrobenzo[c][1,2]oxaborol-6-yl)methyl)-2-methyl-4-(5-(3,4,5-trichlorophenyl)-5-(trifluoromethyl)-4,5-dihydroisoxazol-3-yl)benzamide]",Maximum in vivo efficacy (% reduction in live tick counts),[1],"7 (100%), 8 (100%),"
same,Residual efficacy,"[2]; Example 7, oral capsule 35 mg/kg",98.7%
same,Geometric mean group live parasite counts,"[2]; Table 2, oral capsule 25 mg/kg",4.8
same,% efficacy,[3]; 8 hours post-treatment,(90.4) %
same,Geometric mean group live flea counts,[3]; 8 hours post-treatment,7.9
same,Geometric mean group live flea counts,[3]; 12 hours post-treatment,0.0
same,% efficacy,[3]; 24 hours post-treatment,(100) %
same,Geometric mean group live flea counts,[3]; 24 hours post-treatment,0.0
same,knockdown against an existing flea infestation,[3]; eight (8) hours of treatment,rapid knockdown
